The values that follow come from ChEMBL document CHEMBL1201862, “PubChem BioAssay data set” (2004).

Test systems include OVCAR-3; EKVX; HL-60; HOP-62; A549; HCT-116; SK-MEL-5; K562; Hs-578T; CAKI-1; NCI/ADR-RES; MDA-MB-435; MDA-N; SK-MEL-2; SK-MEL-28; UO-31; SNB-19; SR; TK-10; BT-549.
Holding throughout (assay): NCI anticancer screen, dose series, 48 h

Where “and” joins values, the source holds several entries; their conditions need not be identical. Equal values may be shown once.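 Following 48 hours of exposure in 96-well plates, responses at five concentrations were used to interpolate endpoints linearly. The concentration for 50% growth inhibition is given as GI50.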 Calls of active or inactive are those of the source. No stated cut-off is given here; in the data, active = GI50 up to about 1.1 µM and inactive = higher.

For the molecule `O=C1C=CC(=O)c2c(O)nc(CBr)nc21`, the GI50 with OVCAR-3 was > 100 µM (inactive); with EKVX, > 100 µM (inactive); with HL-60, 14.9 µM (inactive); in the assay on HOP-62, > 100 µM (inactive); with A549, > 100 µM (inactive); in the assay on HCT-116, 56.8 µM (inactive). Moreover, the GI50 in the assay on SK-MEL-5 was 44.9 µM (inactive); in the assay with K562, 94.4 µM (inactive); in the assay with Hs-578T it was > 100 µM (inactive); with CAKI-1 it was > 100 µM (inactive); in the assay on NCI/ADR-RES it was > 100 µM (inactive); with MDA-MB-435, 30.4 µM (inactive). Moreover, the GI50 in the assay on MDA-N was 36.1 µM (inactive); in the assay with SK-MEL-2 it was > 100 µM (inactive); with SK-MEL-28, > 100 µM (inactive); in the assay on UO-31 it was > 100 µM (inactive).
As to `CNC(=S)N/N=C1\C(=O)N(CN2CCOCC2)c2ccc([N+](=O)[O-])cc21`, the GI50 with OVCAR-3 was 17.5 µM (inactive); with EKVX it was 15.6 µM (inactive); with HL-60 it was 23.6 µM (inactive); in the assay on SNB-19, 21.9 µM (inactive); in the assay on HOP-62, 14.1 µM (inactive); with SR it was 53.3 µM (inactive). The GI50 with A549 was 31.9 µM (inactive); in the assay on HCT-116, 15.4 µM (inactive); with SK-MEL-5, 32.5 µM (inactive); in the assay on K562, > 100 µM (inactive); in the assay on Hs-578T, 25 µM (inactive); with TK-10, 13.3 µM (inactive). In addition, the GI50 with CAKI-1 was 17.7 µM (inactive); in the assay with NCI/ADR-RES, 16.3 µM (inactive); in the assay with MDA-MB-435, 60.3 µM (inactive); in the assay with MDA-N, 67.9 µM (inactive); with SK-MEL-2, 6.5 µM (inactive); in the assay with SK-MEL-28 it was 20.7 µM (inactive). In the assay on UO-31, the GI50 is 3.05 µM (inactive).
Consider `[N-]=[N+]=CC(=O)OCCCCl`, for which the GI50 in the assay on OVCAR-3 is > 100 µM (inactive); with EKVX, > 100 µM (inactive); with HL-60, > 100 µM (inactive); in the assay with SNB-19 it was > 100 µM (inactive); with HOP-62 it was > 100 µM (inactive); in the assay with SR it was 4.25 µM (inactive). Besides, the GI50 in the assay on HCT-116, in the assay on SK-MEL-5, in the assay on TK-10, in the assay with CAKI-1, in the assay on MDA-MB-435 and with MDA-N was > 100 µM (inactive) each time. For the same molecule, the GI50 in the assay with SK-MEL-2, in the assay with SK-MEL-28, in the assay on UO-31 and with BT-549 was > 100 µM (inactive) throughout.
On to `C=C1C(=O)OC2CC1C(OC(C)=O)C/C(C)=C/CC/C(C)=C\CCC2(C)O` (centres undefined), for which the GI50 with OVCAR-3 is 5.93 µM (inactive) and 4.35 µM (inactive); in the assay on EKVX it was 3.81 µM (inactive) and 3.73 µM (inactive); in the assay with HL-60 it was 1.23 µM (inactive) and 655 nM (active); in the assay with SNB-19 it was 17.3 µM (inactive) and 15.1 µM (inactive); in the assay with HOP-62, 15.3 µM (inactive) and 13.6 µM (inactive); in the assay with SR, 1.29 µM (inactive). Besides, the GI50 with A549 is 16 µM (inactive) and 17.2 µM (inactive); with HCT-116 it was 2.08 µM (inactive) and 2.91 µM (inactive); in the assay on K562, 1.39 µM (inactive) and 2.54 µM (inactive); in the assay on Hs-578T it was 5.87 µM (inactive) and 3.79 µM (inactive); with TK-10, 4.37 µM (inactive) and 3.66 µM (inactive); with CAKI-1, 4.34 µM (inactive) and 2.96 µM (inactive). Moreover, the GI50 with NCI/ADR-RES is 3.66 µM (inactive) and 3.49 µM (inactive); in the assay with MDA-MB-435 it was 4.19 µM (inactive) and 4.68 µM (inactive); in the assay on MDA-N it was 2.92 µM (inactive) and 4.09 µM (inactive); with SK-MEL-28, 3.19 µM (inactive) and 2.95 µM (inactive); in the assay with UO-31 it was 3.24 µM (inactive) and 6.12 µM (inactive).
Consider `O=C1/C(=C/c2ccco2)NC(=S)N1CN1CCOCC1`, for which the GI50 with OVCAR-3, in the assay on EKVX, in the assay on SNB-19, in the assay with HOP-62, with SR and in the assay on A549 was > 100 µM (inactive) throughout. For the same molecule, the GI50 in the assay with HCT-116, in the assay with SK-MEL-5, with K562, with Hs-578T, in the assay on TK-10 and in the assay on NCI/ADR-RES was > 100 µM (inactive) throughout. Moreover, the GI50 with MDA-MB-435, in the assay with MDA-N, in the assay on SK-MEL-2, with SK-MEL-28 and in the assay with UO-31 was > 100 µM (inactive) each time.
On to `CCCCCCCCCCCCCCCCCCNC(=S)N/C=C1/C(=O)C=C(C)OC1=O`, for which the GI50 was 32.1 µM (inactive) in the assay with OVCAR-3; 20.6 µM (inactive) in the assay on EKVX; 3.31 µM (inactive) in the assay with HL-60; 20.4 µM (inactive) in the assay on SNB-19; 31.8 µM (inactive) in the assay on HOP-62; 25.9 µM (inactive) in the assay on A549. For the same molecule, the GI50 in the assay with HCT-116 is 30.1 µM (inactive); in the assay on SK-MEL-5 it was 29.6 µM (inactive); in the assay on TK-10 it was 19.2 µM (inactive); in the assay on CAKI-1, 23.4 µM (inactive); with NCI/ADR-RES it was 28.6 µM (inactive); with MDA-MB-435 it was 23.7 µM (inactive). The GI50 is 36.4 µM (inactive) in the assay on MDA-N; 21.4 µM (inactive) in the assay on SK-MEL-2; 32.4 µM (inactive) with SK-MEL-28; 16.9 µM (inactive) in the assay on UO-31; 19.1 µM (inactive) in the assay on BT-549.
In the case of `CC1C(c2ccc(Cl)cc2)c2cc3c(cc2OC1N1CCOCC1)OCO3` (centres undefined), the GI50 in the assay with OVCAR-3 was 85.3 µM (inactive); in the assay on EKVX it was > 100 µM (inactive); in the assay with SNB-19 it was 80.9 µM (inactive); in the assay on HOP-62 it was 79.4 µM (inactive); in the assay on SR, 0.931 µM (active); with A549, 75.7 µM (inactive). Besides, the GI50 is 95.1 µM (inactive) in the assay with HCT-116; 51.3 µM (inactive) in the assay on SK-MEL-5; > 100 µM (inactive) with K562; 23.9 µM (inactive) in the assay with Hs-578T; > 100 µM (inactive) with TK-10; 31.8 µM (inactive) with CAKI-1. For the same molecule, the GI50 in the assay with NCI/ADR-RES was > 100 µM (inactive); with MDA-MB-435 it was 95.1 µM (inactive); in the assay with MDA-N it was > 100 µM (inactive); with SK-MEL-2, 69.7 µM (inactive); with SK-MEL-28, > 100 µM (inactive); in the assay with UO-31 it was 54.3 µM (inactive).
In the case of `CN(C(=O)Cc1cc(Cl)c(Cl)cc1NC(=O)CCCN)[C@H]1CCCC[C@@H]1N1CCCC1`, the GI50 in the assay with OVCAR-3 was > 100 µM (inactive); in the assay on EKVX, 45.1 µM (inactive); with HL-60, 22.4 µM (inactive); in the assay with SNB-19, 19.8 µM (inactive); in the assay with HOP-62, > 100 µM (inactive); in the assay with SR it was 34.8 µM (inactive). For the same molecule, the GI50 in the assay with A549 is 29.5 µM (inactive); in the assay on HCT-116 it was 29.9 µM (inactive); in the assay on SK-MEL-5 it was 16.1 µM (inactive); with K562 it was > 100 µM (inactive); with TK-10, 57.8 µM (inactive); in the assay on CAKI-1, > 100 µM (inactive). Besides, the GI50 was > 100 µM (inactive) in the assay with NCI/ADR-RES; 16.4 µM (inactive) in the assay on MDA-MB-435; 16.7 µM (inactive) in the assay on MDA-N; 21.9 µM (inactive) with SK-MEL-2; 17.1 µM (inactive) with SK-MEL-28; > 100 µM (inactive) in the assay with UO-31. The GI50 with BT-549 is 71.9 µM (inactive).
